Assay results published in patent publication US20190070170A1, “METHOD OF S[…]-1” (Macau University of Science and Technology, priority 2017, published 2019).

Assays:
PGI2 = PGI2 level in culture supernatants of LPS-activated rat peritoneal macrophages (ELISA); assay type: cell-based; conditions: LPS-stimulated rat peritoneal macrophages, culture supernatant
Description: Sprague-Dawley (SD) rats from the University of Hong Kong were housed in cages with free access to food and water. Peritoneal macrophages of SD rats were isolated as described in Liu J. et al., Pharmacological research 2016, 111:303-315. Briefly, untreated rats were sacrificed and after laparotomy, about 50 ml cold sterile Hank's balanced salt solution (HBSS) was used to lavage the peritoneal cavity at twice, and then the peritoneal lavage fluid was collected and centrifuged at 1500 rpm for 10 min. The cell pellets was suspended at a density 1.5×10^6 cells/ml in pre-hearted DMEM medium with 10% heat-inactivated FBS, penicillin G (100 units/ml), streptomycin ([…]), and L-glutamine (2 mM), followed by seeding in 6-well plates at a density of 4.5×10^6 cells and incubation for 2 h. Then the medium were discarded to remove the non-adherent cells. The adherent cells were further washed for two times with pre-heated DMEM medium to remove floating cells. Next, cells were pre-treated with various concentration of SIN for 1 h, followed by stimulation with LPS (1 μg/ml).
RAW264.7 cells and rat peritoneal macrophages were seeded in a 96-well plate at density of 1.4×10^4 and 1.5×10^5 cells, respectively. […] The optical density was measured at 570 nm against a reference wavelength of 650 nm using a microplate UV/VIS spectrophotometer (Tecan, Mannedorf, Switzerland). […]

NO = NO production in LPS-stimulated RAW264.7 cells (Griess reagent); assay type: cell-based, mouse; conditions: pretreatment 1 h, LPS 100 ng/ml 18 h
Description: RAW264.7 and A549 cell lines were obtained from American Type Culture Collection (ATCC, Manassas, Va., USA) and maintained in DMEM (RAW264.7) or 1640 (A549) medium containing 10% FBS (Gibco-BRL, Grand Island, N.Y., USA) and antibiotics at 37° C. in a humidified atmosphere containing 5% CO2. RAW264.7 cells were plated in 6-well plates at a density of 4×10^5 cells and incubated for 24 h, then the cells were pretreated with different concentrations of SIN for 1 h before stimulating with LPS (100 ng/ml). A549 cells were seeded in 6-well plates at a density of 1×10^5 cells and incubated for 24 h, followed by pretreatment with SIN. A549 cells were then stimulated by IL-1β (1 ng/ml).
RAW264.7 cells and rat peritoneal macrophages were seeded in a 96-well plate at density of 1.4×10^4 and 1.5×10^5 cells, respectively. Various concentration of SIN was added to the cells for 1 hour before LPS stimulation. After stimulation with LPS for 18 h (RAW264.7 cells) or 24 h (rat peritoneal macrophages), MTT solution was added to each well and incubated for another 4 hours. 100 μl 10% SDS-HCl solution was added to each well for overnight to dissolve the formazan dye. The optical density was measured at 570 nm against a reference wavelength of 650 nm using a microplate UV/VIS spectrophotometer (Tecan, Mannedorf, Switzerland). […]

p65 = test: Nuclear translocation of p65 in LPS-stimulated RAW264.7 cells (immunofluorescence); assay type: cell-based, mouse; conditions: 640 μM SIN 1 h, then LPS
Description: RAW 264.7 cells were seeded on glass coverslip at a density 2.0×10^5 cells/well in 6-well plates and incubated for 24 h. Cells were pretreated with 640 μM SIN for 1 h and followed stimulated by LPS (100 ng/ml) for another 1 h. Rat primary peritoneal macrophages were grown on glass coverslip at a density 4.5×10^6 cells/well in 6-well plates and pretreated with 640 μM SIN for 1 h, and then challenged with LPS (1 μg/ml) for another 30 min (for NF-κB) or 2 h (for C/EBPβ). Cells were fixed with 4% paraformaldehyde for 30 min at room temperature and then blocked for 1 h with 5% BSA in PBS containing 0.1% Triton X-100. Then incubated with a primary antibodies for overnight and followed by Alexa Fluor 594-labeled goat anti-rabbit IgG. Cells were washed three times, and stained with DAPI for 30 min. After a wash step, cells were fixed on the slide and the images were acquired using a LeicaDM2500 fluorescent microscope (Leica Microsystems GmbH, Wet-zlar, Germany).

## COC1=C[C@@H]2[C@@H]3Cc4ccc(OC)c(O)c4[C@]2(CCN3C)CC1=O [SIN, sinomenine]
PGI2
  level of PGI2: no significant influence
NO
  NO production (nitrite): significantly inhibited
p65
  nuclear translocation of p65: did not produce observable effects
